{"source": "patent US20050267357A1", "about": "“fMRI system for detecting symptoms associated with Attention Deficit Hyperactivity Disorder” (priority 2003, published 2005)", "test_system": "left insula/frontal operculum of ADHD and control groups", "experiment": "fMRI during N-Back working memory and sustained attention task, on and off medication", "assay_type": "in vivo", "conditions": "1-B, 2-B and 3-B N-Back conditions, 0.2 mg/kg and 0.4 mg/kg MP compared with placebo", "excerpt": "A General Electric Signa EXCITE 3.0 Tesla MRI scanner is used for implementing the present invention although any of a number of commercial MRI scanners having 3.0 or 1.5 Tesla fields could be used. Typical imaging parameters involve, for example, the acquisition of 36 contiguous axial slices that cover the entire brain (typically 4 mm thick) using a blipped gradient-echo, echoplanar pulse sequence (echo time (TE)=25 msec; interscan period (TR)=[…]; field of view (FOV)=24 cm; 64×64 voxel matrix; 3.75 mm.×3.75 mm in-plane resolution). High resolution (124 axial slices) spoiled GRASS (gradient-recalled at steady-state) anatomic images [TE=3.9 ms; TR (repetition time)=9.5 ms, 120 flip angle, NEX (number of excitations)=1, slice thickness=1.0 mm, FOV=24 cm, matrix size=256×224] are acquired prior to functional imaging for anatomical localization of functional activation and co-registration. Stimulus presentation and general communication to the patient in the MR scanner is accomplished with stereo audio headphones and computer generated images fed into a digital LCD projector which are back projected to the subject and viewed by the patient through prismatic glasses. Subject responses are recorded on a small hand held keyboard or response device including multiple response buttons. […]", "data": [{"smiles": "COC(=O)C(c1ccccc1)C1CCCCN1", "note": "(stereo not shown) [MP, Methylphenidate]", "values": [{"measurement": "Group differences (ADHD vs control) in brain activation (percent MR signal intensity)", "result": "tended to disappear"}]}]}
